From ChEMBL document CHEMBL1201862, “PubChem BioAssay data set” (2004)
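Results reflect a 48-hour exposure of cells in 96-well plates to compound at five concentrations. Abbreviation: GI50, concentration required for 50% inhibition of growth.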 Activity calls are given as the source filed them. No stated cut-off is given here; in the data, active = GI50 up to about 1.1 µM and inactive = higher. Square brackets hold non-standard residues; d marks the D form. Peptide text beside a SMILES is read from it. * marks the point of attachment. Phe(4-NO2) = N[CH](Cc1ccc([N+](=O)[O-])cc1)C(=O)O; Cbz = O=C(OCc1ccccc1)*

Assays:
Test in all cases: inhibition of tumour cell growth, NCI panel, 48 h
[1] = tested on: 786-0
[2] = tested on: A498
[3] = tested on: A549
[4] = tested on: ACHN
[5] = tested on: BT-549
[6] = tested on: CAKI-1
[7] = tested on: CCRF-CEM
[8] = tested on: COLO 205
[9] = tested on: DU-145
[10] = tested on: EKVX
[11] = tested on: HCC 2998
[12] = tested on: HCT-116
[13] = tested on: HCT-15
[14] = tested on: HL-60
[15] = tested on: HOP-62
[16] = tested on: HOP-92
[17] = tested on: HT-29
[18] = tested on: Hs-578T
[19] = tested on: IGROV-1
[20] = tested on: K562
[21] = tested on: KM12
[22] = tested on: LOX IMVI
[23] = tested on: M14
[24] = tested on: MCF7
[25] = tested on: MDA-MB-231
[26] = tested on: MDA-MB-435
[27] = tested on: MDA-N
[28] = tested on: MOLT-4
[29] = tested on: NCI-H460
[30] = tested on: NCI/ADR-RES
[31] = tested on: OVCAR-3
[32] = tested on: OVCAR-4
[33] = tested on: OVCAR-5
[34] = tested on: OVCAR-8
[35] = tested on: PC-3
[36] = tested on: RPMI-8226
[37] = tested on: SF-268
[38] = tested on: SF-295
[39] = tested on: SF-539
[40] = tested on: SK-MEL-28
[41] = tested on: SK-MEL-2
[42] = tested on: SK-MEL-5
[43] = tested on: SK-OV-3
[44] = tested on: SN12C
[45] = tested on: SNB-19
[46] = tested on: SNB-75
[47] = tested on: SR
[48] = tested on: SW-620
[49] = tested on: T47D
[50] = tested on: TK-10
[51] = tested on: U-251
[52] = tested on: UACC-257
[53] = tested on: UACC-62
[54] = tested on: UO-31
[55] = tested on: Malme-3M
[56] = tested on: NCI-H226
[57] = tested on: NCI-H23
[58] = tested on: NCI-H522
[59] = tested on: RXF 393

COc1ccc(OC)c2sc(N3C(=O)/C(=C/c4ccc(SC)cc4)N=C3c3ccccc3)nc12
GI50 [1]: 43.3 µM (inactive) | GI50 [2]: > 100 µM (inactive) | GI50 [3]: 22.2 µM (inactive) | GI50 [4]: 28.9 µM (inactive) | GI50 [5]: 29.4 µM (inactive) | GI50 [6]: 96.2 µM (inactive) | GI50 [7]: 8.17 µM (inactive) | GI50 [8]: 58.5 µM (inactive) | GI50 [9]: 39.9 µM (inactive) | GI50 [10]: 32.1 µM (inactive) | GI50 [11]: 71.4 µM (inactive) | GI50 [12]: 18.7 µM (inactive) | GI50 [13]: 43.1 µM | GI50 [14]: 25.5 µM (inactive) | GI50 [15]: 16.4 µM (inactive) | GI50 [16]: 55.7 µM (inactive) | GI50 [17]: 23.1 µM (inactive) | GI50 [18]: 17.7 µM (inactive) | GI50 [19]: 23.3 µM (inactive) | GI50 [20]: > 100 µM (inactive) | GI50 [21]: 20 µM (inactive) | GI50 [22]: 25.6 µM (inactive) | GI50 [23]: 21.2 µM (inactive) | GI50 [24]: 20.3 µM (inactive) | GI50 [25]: > 100 µM (inactive) | GI50 [26]: 17.2 µM (inactive) | GI50 [27]: 20.3 µM (inactive) | GI50 [28]: 22.3 µM (inactive) | GI50 [29]: 28.6 µM (inactive) | GI50 [30]: 29.3 µM (inactive) | GI50 [31]: 20.4 µM (inactive) | GI50 [32]: 28.5 µM (inactive) | GI50 [33]: 47.3 µM (inactive) | GI50 [34]: 27.7 µM (inactive) | GI50 [35]: 21.7 µM (inactive) | GI50 [36]: 13.3 µM (inactive) | GI50 [37]: 14.1 µM (inactive) | GI50 [38]: 42 µM (inactive) | GI50 [39]: 23.8 µM (inactive) | GI50 [40]: > 100 µM (inactive) | GI50 [41]: 20.8 µM (inactive) | GI50 [42]: 15.6 µM (inactive) | GI50 [43]: 30.5 µM (inactive) | GI50 [44]: 24.9 µM (inactive) | GI50 [45]: 26.4 µM (inactive) | GI50 [46]: 18.3 µM (inactive) | GI50 [47]: 26.4 µM (inactive) | GI50 [48]: 27.4 µM (inactive) | GI50 [49]: 26.3 µM (inactive) | GI50 [50]: > 100 µM (inactive) | GI50 [51]: 17.5 µM (inactive) | GI50 [52]: 17.3 µM (inactive) | GI50 [53]: 31.5 µM (inactive) | GI50 [54]: 24.2 µM (inactive)

CCOC(=O)CCC(NC(=O)OCc1ccccc1)C(=O)NC(CCC(=O)OCC)C(=O)NC(CCC(=O)OCC)C(=O)NC(CCC(=O)OCC)C(=O)NC(CCC(=O)OCC)C(=O)NC(Cc1ccc([N+](=O)[O-])cc1)C(=O)NC(CCC(=O)OCC)C(=O)NC(CCC(=O)OCC)C(=O)NC(CCC(=O)OCC)C(=O)NC(CCC(=O)OCC)C(=O)NC(CCC(=O)OCC)C(=O)OCC (configuration not stated) (Cbz-E(OEt)E(OEt)E(OEt)E(OEt)E(OEt)[Phe(4-NO2)]E(OEt)E(OEt)E(OEt)E(OEt)E(OEt)-OEt; configuration not given here)
GI50 [1]: > 50 µM (inactive) | GI50 [2]: > 50 µM (inactive) | GI50 [3]: > 50 µM (inactive) | GI50 [4]: > 50 µM (inactive) | GI50 [5]: > 50 µM (inactive) | GI50 [7]: > 50 µM (inactive) | GI50 [8]: > 50 µM (inactive) | GI50 [9]: > 50 µM (inactive) | GI50 [10]: > 50 µM (inactive) | GI50 [11]: > 50 µM (inactive) | GI50 [13]: > 50 µM | GI50 [14]: > 50 µM (inactive) | GI50 [15]: > 50 µM (inactive) | GI50 [17]: > 50 µM (inactive) | GI50 [18]: > 50 µM (inactive) | GI50 [19]: > 50 µM (inactive) | GI50 [20]: > 50 µM (inactive) | GI50 [21]: > 50 µM (inactive) | GI50 [22]: > 50 µM (inactive) | GI50 [23]: 16.8 µM (inactive) | GI50 [24]: > 50 µM (inactive) | GI50 [25]: > 5 µM (inactive) | GI50 [26]: > 50 µM (inactive) | GI50 [27]: > 50 µM (inactive) | GI50 [28]: > 50 µM (inactive) | GI50 [55]: > 50 µM (inactive) | GI50 [56]: > 50 µM (inactive) | GI50 [57]: > 50 µM (inactive) | GI50 [29]: > 50 µM (inactive) | GI50 [58]: > 50 µM (inactive) | GI50 [30]: > 50 µM (inactive) | GI50 [31]: > 50 µM (inactive) | GI50 [32]: 23 µM (inactive) | GI50 [33]: > 50 µM (inactive) | GI50 [35]: > 50 µM (inactive) | GI50 [36]: > 50 µM (inactive) | GI50 [59]: > 50 µM (inactive) | GI50 [37]: > 50 µM (inactive) | GI50 [39]: > 50 µM (inactive) | GI50 [40]: > 50 µM (inactive) | GI50 [41]: > 50 µM (inactive) | GI50 [42]: > 50 µM (inactive) | GI50 [43]: > 50 µM (inactive) | GI50 [44]: > 50 µM (inactive) | GI50 [45]: > 50 µM (inactive) | GI50 [46]: > 50 µM (inactive) | GI50 [47]: > 50 µM (inactive) | GI50 [48]: > 50 µM (inactive) | GI50 [49]: > 50 µM (inactive) | GI50 [50]: > 50 µM (inactive) | GI50 [51]: > 50 µM (inactive) | GI50 [53]: > 50 µM (inactive) | GI50 [54]: > 50 µM (inactive)
